According to patent US10975093B2, “Fused 1,4-diazepines as BET protein degraders” (THE REGENTS OF THE UNIVERSITY OF MICHIGAN, priority 2016, dated 2021):

What was measured:
Type in all cases: cell-based
MDA-MB-231 = assay: Cell growth inhibition, CellTiter-Glo Luminescent Cell Viability Assay, MDA-MB-231; conditions: Homo sapiens, MDA-MB-231 cells, 4 days incubation
Procedure, shortened: (§1)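 Cells were seeded at 2,000/well with serially diluted compound and grown 4 days at 37° C, 5% CO2. Viability was read by CellTiter-Glo luminescence after 10-20 min at room temperature, and IC50 was fitted from the dose-response.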

MDA-MB-468 = assay: Cell growth inhibition, CellTiter-Glo Luminescent Cell Viability Assay, MDA-MB-468; conditions: Homo sapiens, 96 h, MDA-MB-468 cells, 4 days incubation
Description: (§2) Cell growth inhibitory activity of representative Compounds of the Disclosure was determined in various cell lines using CellTiter-Glo® Luminescent Cell Viability Assay. Cells were seeded in 384-well white opaque cell culture plates at a density of 2,000 cells/well with serially diluted compounds and incubated at 37° C. in an atmosphere of 95% air and 5% CO2 for 4 days. Cell viability was determined using the CellTiter-Glo® Luminescent Cell Viability Assay Kit (Promega, Madison, Wis.) according to the manufacture's instruction. Briefly, a volume of CellTiter-Glo® Reagent equal to the volume of cell culture medium was added to each well, and then the plates were incubated at room temperature for 10-20 minutes. The luminescent signal was measured using a Tecan Infinite M1000 multimode microplate reader (Tecan, Morrisville, N.C.). The half maximal inhibitory concentration (IC50) was calculated using the GraphPad Prism 5 software (GraphPad Software, La Jolla, Calif.).

MOLM-13 = assay: Cell growth inhibition, CellTiter-Glo Luminescent Cell Viability Assay, MOLM-13; conditions: Homo sapiens, MOLM-13 cells, 4 days incubation
Procedure, shortened: as §1

RS4; 11 = assay: Cell growth inhibition, CellTiter-Glo Luminescent Cell Viability Assay, RS4;11; conditions: Homo sapiens, 96 h, RS4;11 cells, 4 days incubation
Description: as §2

| SMILES | IC50 (MDA-MB-231; MDA-MB-231, 96 h) | IC50 (MDA-MB-468) | IC50 (MOLM-13; 96 h) | IC50 (MDA-MB-231; 96 h) | IC50 (RS4; 11) | IC50 (MOLM-13; MOLM-13, 96 h) |
| --- | --- | --- | --- | --- | --- | --- |
| Cc1c(C#Cc2cnn(CCCC#Cc3cccc4c3C(=O)N(C3CCC(=O)NC3=O)C4=O)c2)sc2c1C(c1ccc(Cl)cc1)=N[C@@H](C)c1nnc(C)n1-2 (stereo partly drawn) [Cpd. No. 30, 4-(5-(4-(((S)-4-(4-chlorophenyl)-3,6,9-trimethyl-6H-thieno[3,2-f][1,2,4]triazolo[4,3-a][1,4]diazepin-2-yl)ethynyl)-1H-pyrazol-1-yl)pent-1-yn-1-yl)-2-(2,6-dioxopiperidin-3-yl)isoindoline-1,3-dione] | 3.7 nM | 3.6 nM |  |  |  |  |
| Cc1c(C#Cc2cnn(CCCCOc3cccc4c3C(=O)N(C3CCC(=O)NC3=O)C4=O)c2)sc2c1C(c1ccc(Cl)cc1)=N[C@@H](C)c1nnc(C)n1-2 (stereo partly drawn) [Cpd. No. 32, 4-(4-(4-(((S)-4-(4-chlorophenyl)-3,6,9-trimethyl-6H-thieno[3,2-f][1,2,4]triazolo[4,3-a][1,4]diazepin-2-yl)ethynyl)-1H-pyrazol-1-yl)butoxy)-2-(2,6-dioxopiperidin-3-yl)isoindoline-1,3-dione] | 2.5 nM | 3.5 nM |  |  |  |  |
| Cc1c(C#Cc2ccc(OCCCCc3cccc4c3CN(C3CCC(=O)NC3=O)C4=O)cn2)sc2c1C(c1ccc(Cl)cc1)=N[C@@H](C)c1nnc(C)n1-2 (stereo partly drawn) [Cpd. No. 12, 3-(4-(4-((6-(((S)-4-(4-chlorophenyl)-3,6,9-trimethyl-6H-thieno[3,2-f][1,2,4]triazolo[4,3-a][1,4]diazepin-2-yl)ethynyl)pyridin-3-yl)oxy)butyl)-1-oxoisoindolin-2-yl)piperidine-2,6-dione] |  | 3 nM | 1.2 nM | 0.86 nM |  |  |
| Cc1c(C#Cc2cncn2CCCC#Cc2cccc3c2C(=O)N(C2CCC(=O)NC2=O)C3=O)sc2c1C(c1ccc(Cl)cc1)=NCc1nnc(C)n1-2 (stereo not shown) [Cpd. No. 29, 4-(5-(5-((4-(4-chlorophenyl)-3,9-dimethyl-6H-thieno[3,2-f][1,2,4]triazolo[4,3-a][1,4]diazepin-2-yl)ethynyl)-1H-imidazol-1-yl)pent-1-yn-1-yl)-2-(2,6-dioxopiperidin-3-yl)isoindoline-1,3-dione] | > 100 nM | > 100 nM |  |  | 7 nM | 22.8 nM |
| Cc1c(C#Cc2cnn(CCCC#Cc3cccc4c3C(=O)N(C3CCC(=O)NC3)C4=O)c2)sc2c1C(c1ccc(Cl)cc1)=NCc1nnc(C)n1-2 (stereo not shown) [compound 163, 4-(5-(4-((4-(4-chlorophenyl)-3,9-dimethyl-6H-thieno[3,2-f][1,2,4]triazolo[4,3-a][1,4]diazepin-2-yl)ethynyl)-1H-pyrazol-1-yl)pent-1-yn-yl)-2-(6-oxopiperidin-3-yl)isoindoline-1,3-dione] | 284 nM |  |  |  | 216 nM |  |
| Cc1c(C#Cc2cnn(CCCC#Cc3cccc4c3CN(C3CCC(C)NC3=O)C4=O)c2)sc2c1C(c1ccc(Cl)cc1)=N[C@@H](C)c1nnc(C)n1-2 (stereo partly drawn) [compound 162, 4-(5-(4-(((S)-4-(4-chlorophenyl)-3,6,9-trimethyl-6H-thieno[3,2-f][1,2,4]triazolo[4,3-a][1,4]diazepin-2-yl)ethynyl)-1H-pyrazol-1-yl)pent-1-yn-1-yl)-2-(6-methyl-2-oxopiperidin-3-yl)isoindolin-1-one] | 22 nM |  |  |  | 2.4 nM |  |
| Cc1c(C#Cc2cnn(CCCCNc3cccc4c3C(=O)N(C3CCC(=O)NC3)C4=O)c2)sc2c1C(c1ccc(Cl)cc1)=NCc1nnc(C)n1-2 (stereo not shown) [compound 164, 4-((4-(4-((4-(4-chlorophenyl)-3,9-dimethyl-6H-thieno[3,2-f][1,2,4]triazolo[4,3-a][1,4]diazepin-2-yl)ethynyl)-1H-pyrazol-1-yl)butyl)amino)-2-(6-oxopiperidin-3-yl)isoindoline-1,3-dione] | 78.5 nM |  |  |  | 74 nM |  |
| Cc1c(C#Cc2cnn(CCCCNc3cccc4c3CN(C3CCC(=O)NC3=O)C4=O)c2)sc2c1C(c1ccc(Cl)cc1)=N[C@@H](C)c1nnc(C)n1-2 (stereo partly drawn) [compound 145, 3-(4-((4-(4-(((S)-4-(4-chlorophenyl)-3,6,9-trimethyl-6H-thieno[3,2-f][1,2,4]triazolo[4,3-a][1,4]diazepin-2-yl)ethynyl)-1H-pyrazol-1-yl)butyl)amino)-1-oxoisoindolin-2-yl)piperidine-2,6-dione] | 0.39 nM |  |  |  | 0.13 nM |  |
| Cc1c(C#Cc2ccc(CCCC#Cc3cccc4c3CN(C3CCC(=O)NC3=O)C4=O)cn2)sc2c1C(c1ccc(Cl)cc1)=N[C@@H](C)c1nnc(C)n1-2 (stereo partly drawn) [Cpd. No. 14, 3-(4-(5-(6-(((S)-4-(4-chlorophenyl)-3,6,9-trimethyl-6H-thieno[3,2-f][1,2,4]triazolo[4,3-a][1,4]diazepin-2-yl)ethynyl)pyridin-3-yl)pent-1-yn-1-yl)-1-oxoisoindolin-2-yl)piperidine-2,6-dione] | 0.18 nM | 1.1 nM |  |  |  | 0.24 nM |
| Cc1c(C#Cc2cnn(CCCCOc3cccc4c3CN(C3CCC(=O)NC3=O)C4=O)c2)sc2c1C(c1ccc(Cl)cc1)=N[C@@H](C)c1nnc(C)n1-2 (stereo partly drawn) [compound 147, 3-(4-(4-(4-(((S)-4-(4-chlorophenyl)-3,6,9-trimethyl-6H-thieno[3,2-f][1,2,4]triazolo[4,3-a][1,4]diazepin-2-yl)ethynyl)-1H-pyrazol-1-yl)butoxy)-1-oxoisoindolin-2-yl)piperidine-2,6-dione] | 0.08 nM |  |  |  | 0.05 nM |  |
| Cc1c(C#Cc2cnn(CCCCN3C(=O)CCC(N4Cc5c(N)cccc5C4=O)C3=O)c2)sc2c1C(c1ccc(Cl)cc1)=N[C@@H](C)c1nnc(C)n1-2 (stereo partly drawn) [compound 165, 3-(4-amino-1-oxoisoindolin-2-yl)-1-(4-(4-(((S)-4-(4-chlorophenyl)-3,6,9-trimethyl-6H-thieno[3,2-f][1,2,4]triazolo[4,3-a][1,4]diazepin-2-yl)ethynyl)-1H-pyrazol-1-yl)butyl)piperidine-2,6-dione] | 12.7 nM |  |  |  | 3.7 nM |  |
| Cc1c(C#Cc2ccc(CCCC#Cc3cccc4c3CN(C3CCC(=O)NC3=O)C4=O)cn2)sc2c1C(c1ccc(Cl)cc1)=NCc1nnc(C)n1-2 (stereo not shown) [Cpd. No. 13, 3-(4-(5-(6-((4-(4-chlorophenyl)-3,9-dimethyl-6H-thieno[3,2-f][1,2,4]triazolo[4,3-a][1,4]diazepin-2-yl)ethynyl)pyridin-3-yl)pent-1-yn-1-yl)-1-oxoisoindolin-2-yl)piperidine-2,6-dione] | 7.4 nM | 32.4 nM |  |  |  | 6.4 nM |
| Cc1c(C#Cc2ccc(OCCCCc3cccc4c3CN(C3CCC(=O)NC3=O)C4=O)cn2)sc2c1C(c1ccc(Cl)cc1)=NCc1nnc(C)n1-2 (stereo not shown) [Cpd. No. 11, 3-(4-(4-((6-((4-(4-chlorophenyl)-3,9-dimethyl-6H-thieno[3,2-f][1,2,4]triazolo[4,3-a][1,4]diazepin-2-yl)ethynyl)pyridin-3-yl)oxy)butyl)-1-oxoisoindolin-2-yl)piperidine-2,6-dione] |  | 51 nM | 11.4 nM | 18.1 nM |  |  |
| Cc1c(C#Cc2cnn(CCCC#Cc3cccc4c3CN(C3CCC(C)NC3=O)C4=O)c2)sc2c1C(c1ccc(Cl)cc1)=NCc1nnc(C)n1-2 (stereo not shown) [compound 161, 4-(5-(4-((4-(4-chlorophenyl)-3,9-dimethyl-6H-thieno[3,2-f][1,2,4]triazolo[4,3-a][1,4]diazepin-2-yl)ethynyl)-1H-pyrazol-1-yl)pent-1-yn-1-yl)-2-(6-methyl-2-oxopiperidin-3-yl)isoindolin-1-one] | 71.8 nM |  |  |  | 20.4 nM |  |
| Cc1c(C#Cc2cnn(CCCN3CCC(Nc4cccc5c4CN(C4CCC(=O)NC4=O)C5=O)CC3)c2)sc2c1C(c1ccc(Cl)cc1)=N[C@@H](CC(=O)N1CCN(C)CC1)c1nnc(C)n1-2 (stereo partly drawn) [compound 192, 3-(4-((1-(3-(4-(((S)-4-(4-chlorophenyl)-3,9-dimethyl-6-(2-(4-methylpiperazin-1-yl)-2-oxoethyl)-6H-thieno[3,2-f][1,2,4]triazolo[4,3-a][1,4]diazepin-2-yl)ethynyl)-1H-pyrazol-1-yl)propyl)piperidin-4-yl)amino)-1-oxoisoindolin-2-yl)piperidine-2,6-dione] | 0.08 nM |  |  |  |  | 0.07 nM |
| Cc1ncsc1-c1ccc([C@H](C)NC(=O)[C@@H]2C[C@@](C)(O)CN2C(=O)[C@@H](NC(=O)COCCCn2cc(C#Cc3sc4c(c3C)C(c3ccc(Cl)cc3)=N[C@@H](C)c3nnc(C)n3-4)cn2)C(C)(C)C)cc1 [compound 205, (2S,4R)-1-((S)-2-(2-(3-(4-(((S)-4-(4-chlorophenyl)-3,6,9-trimethyl-6H-thieno[3,2-f][1,2,4]triazolo[4,3-a][1,4]diazepin-2-yl)ethynyl)-1H-pyrazol-1-yl)propoxy)acetamido)-3,3-dimethylbutanoyl)-4-hydroxy-4-methyl-N-((S)-1-(4-(4-methylthiazol-5-yl)phenyl)ethyl)pyrrolidine-2-carboxamide] | 93 nM |  |  |  |  | 42.3 nM |
| Cc1c(C#Cc2cnn(CCn3cnc(CNc4cccc5c4CN(C4CCC(=O)NC4=O)C5=O)c3)c2)sc2c1C(c1ccc(Cl)cc1)=NCc1nnc(C)n1-2 (stereo not shown) [compound 150, 3-(4-(((1-(2-(4-((4-(4-chlorophenyl)-3,9-dimethyl-6H-thieno[3,2-f][1,2,4]triazolo[4,3-a][1,4]diazepin-2-yl)ethynyl)-1H-pyrazol-1-yl)ethyl)-1H-imidazol-4-yl)methyl)amino)-1-oxoisoindolin-2-yl)piperidine-2,6-dione] | > 100 nM |  |  |  |  | > 100 nM |
